From patent US9085562B2, “6-alkyl-N-(pyridin-2-yl)-4-aryloxypicolinamide analogs as mGluR5 negative allosteric modulators and methods of making and using the same” (Vanderbilt University, priority 2011, dated 2015)
Values after ≈ are worked out from the molar mass of the structure shown. Where two headings read alike, the source gives them in different places.

Tests used:
elevated plus maze = experiment: Elevated plus maze; format: in vivo
Method: Test compounds (1) and (2) were administrated at the 10 mg/kg and 30 mg/kg doses described in this figure. […] Prospective In Vivo Effects

[1] = test system: Marble Burying Activity in Mice; experiment: Inhibition of marble burying in mice (model of anxiolytic behavior); format: in vivo; settings: WT and Fmrl KO C57BL/6J mice
Method: It is well known that mice will bury foreign objects such as glass marbles in deep bedding (Deacon, R. M. J. Nature Protocols 2006, 1, 122-124). […] These facts along with the relative convenience of this assay make it a useful in vivo screening tool.
Doses of compound were suspended in vehicle (10% Tween 80 for intraperitoneal dosing and 0.5% methylcellulose for oral dosing), vortexed vigorously, heated gently with a Master Heat Gun (Master Appliance Corp., Racine, Wis.), and sonicated at 37° C. for 30 minutes. The pH was checked using 0-14 EMD strips and adjusted to approximately 7. All doses were administered at approximately 10 mL/kg.
Studies were conducted using male Harlan CD-1 mice (Harlan Sprague Dawley, Indianapolis, Ind.), weighing 30 to 35 grams. Subjects were housed in a large colony room under a 12 hour light/dark cycle (lights on at 6:00 a.m.) with food and water provided ad libitum. Test sessions were performed between 10:00 a.m. and 4:00 p.m. All dose groups consisted of ≧10 mice. All experiments were conducted in accordance with the National Institute of Health regulations of animal care covered in Principles of Laboratory Animal Care (National Institutes of Health publication 85-23, revised 1985) and were approved by the Institutional Animal Care and Use Committee.
Plexiglass cages (32×17×14 cm) were arranged on top of a large, round table. Mice were transported from the colony room to the testing room and allowed to habituate for 30 minutes. […] The novel compound and comparator were evaluated in a counterbalanced design, in which all doses of compounds were tested in each session. […] Clear, perforated plastic lids were set on top of each cage and the amount of marble burying was recorded over a 30 minute interval. The mice were then removed from the cages and the number of buried marbles was counted using the criteria of greater than ⅔ covered by bedding. […]
The data for the dose-response studies were analyzed by a between-group analysis of variance. […]

[2] = test system: Marble Burying Activity in Mice; settings: literature (Spooren 2000; Nicolas 2006); cited from earlier work
[3] = test system: N-methyl-D-aspartate (NMDA) receptor; settings: at higher concentrations; cited from earlier work
mGluR4 = mGluR4 (Homo sapiens, UniProt Q14833); settings: cited from earlier work
Sequence of mGluR4 (Q14833 33-912): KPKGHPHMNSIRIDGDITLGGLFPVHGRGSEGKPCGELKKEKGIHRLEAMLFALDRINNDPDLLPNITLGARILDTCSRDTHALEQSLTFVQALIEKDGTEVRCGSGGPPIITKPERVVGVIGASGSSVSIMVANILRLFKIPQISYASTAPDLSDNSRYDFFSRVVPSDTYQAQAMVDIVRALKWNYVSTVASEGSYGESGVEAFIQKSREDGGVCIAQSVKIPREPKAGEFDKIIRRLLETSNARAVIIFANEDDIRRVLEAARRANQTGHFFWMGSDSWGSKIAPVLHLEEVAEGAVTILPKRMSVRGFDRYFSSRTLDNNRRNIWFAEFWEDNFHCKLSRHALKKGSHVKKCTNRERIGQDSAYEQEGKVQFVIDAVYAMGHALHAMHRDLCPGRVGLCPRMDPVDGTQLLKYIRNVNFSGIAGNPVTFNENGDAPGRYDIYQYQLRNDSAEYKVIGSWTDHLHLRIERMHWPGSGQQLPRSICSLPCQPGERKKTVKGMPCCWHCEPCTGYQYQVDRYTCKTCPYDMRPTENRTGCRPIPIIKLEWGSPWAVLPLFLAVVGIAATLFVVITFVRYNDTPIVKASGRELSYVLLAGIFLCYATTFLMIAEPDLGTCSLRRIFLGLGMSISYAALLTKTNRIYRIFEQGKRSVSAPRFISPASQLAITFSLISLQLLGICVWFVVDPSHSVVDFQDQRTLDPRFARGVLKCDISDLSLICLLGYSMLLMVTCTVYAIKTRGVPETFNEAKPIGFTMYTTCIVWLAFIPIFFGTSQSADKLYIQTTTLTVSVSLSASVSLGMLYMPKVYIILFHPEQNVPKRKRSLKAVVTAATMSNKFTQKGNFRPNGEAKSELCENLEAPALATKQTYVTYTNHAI

cytochrome P450 1A2 = target: T1, cytochrome P450 1A2 (Homo sapiens, UniProt P05177); settings: cited from earlier work
T1 sequence (P05177 1-516): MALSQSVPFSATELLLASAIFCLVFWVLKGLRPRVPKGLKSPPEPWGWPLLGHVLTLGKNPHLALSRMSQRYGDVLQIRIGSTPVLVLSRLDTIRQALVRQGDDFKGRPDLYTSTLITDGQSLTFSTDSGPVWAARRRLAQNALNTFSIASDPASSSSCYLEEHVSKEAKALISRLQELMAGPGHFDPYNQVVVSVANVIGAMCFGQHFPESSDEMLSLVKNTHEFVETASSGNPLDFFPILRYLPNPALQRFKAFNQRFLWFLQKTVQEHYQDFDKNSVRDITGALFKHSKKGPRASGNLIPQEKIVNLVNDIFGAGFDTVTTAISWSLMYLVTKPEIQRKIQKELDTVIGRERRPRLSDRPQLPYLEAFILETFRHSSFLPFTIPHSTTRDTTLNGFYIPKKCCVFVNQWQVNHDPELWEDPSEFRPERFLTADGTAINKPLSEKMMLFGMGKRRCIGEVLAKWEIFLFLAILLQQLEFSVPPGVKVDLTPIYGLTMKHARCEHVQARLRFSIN

[4] = intravenous administration to rhesus monkeys; cited from earlier work
mGluR5 = target: T2, mGluR5 (Rattus norvegicus, UniProt P31424); experiment: mGluR5 IC50 / NAM profile of Tables 2 and 4; format: cell-based; settings: Table 2, line under mGluR5 IC50
T2 construct: expressed in transfected cells
T2 sequence (P31424 21-1171 isoform P31424-2 limits assumed): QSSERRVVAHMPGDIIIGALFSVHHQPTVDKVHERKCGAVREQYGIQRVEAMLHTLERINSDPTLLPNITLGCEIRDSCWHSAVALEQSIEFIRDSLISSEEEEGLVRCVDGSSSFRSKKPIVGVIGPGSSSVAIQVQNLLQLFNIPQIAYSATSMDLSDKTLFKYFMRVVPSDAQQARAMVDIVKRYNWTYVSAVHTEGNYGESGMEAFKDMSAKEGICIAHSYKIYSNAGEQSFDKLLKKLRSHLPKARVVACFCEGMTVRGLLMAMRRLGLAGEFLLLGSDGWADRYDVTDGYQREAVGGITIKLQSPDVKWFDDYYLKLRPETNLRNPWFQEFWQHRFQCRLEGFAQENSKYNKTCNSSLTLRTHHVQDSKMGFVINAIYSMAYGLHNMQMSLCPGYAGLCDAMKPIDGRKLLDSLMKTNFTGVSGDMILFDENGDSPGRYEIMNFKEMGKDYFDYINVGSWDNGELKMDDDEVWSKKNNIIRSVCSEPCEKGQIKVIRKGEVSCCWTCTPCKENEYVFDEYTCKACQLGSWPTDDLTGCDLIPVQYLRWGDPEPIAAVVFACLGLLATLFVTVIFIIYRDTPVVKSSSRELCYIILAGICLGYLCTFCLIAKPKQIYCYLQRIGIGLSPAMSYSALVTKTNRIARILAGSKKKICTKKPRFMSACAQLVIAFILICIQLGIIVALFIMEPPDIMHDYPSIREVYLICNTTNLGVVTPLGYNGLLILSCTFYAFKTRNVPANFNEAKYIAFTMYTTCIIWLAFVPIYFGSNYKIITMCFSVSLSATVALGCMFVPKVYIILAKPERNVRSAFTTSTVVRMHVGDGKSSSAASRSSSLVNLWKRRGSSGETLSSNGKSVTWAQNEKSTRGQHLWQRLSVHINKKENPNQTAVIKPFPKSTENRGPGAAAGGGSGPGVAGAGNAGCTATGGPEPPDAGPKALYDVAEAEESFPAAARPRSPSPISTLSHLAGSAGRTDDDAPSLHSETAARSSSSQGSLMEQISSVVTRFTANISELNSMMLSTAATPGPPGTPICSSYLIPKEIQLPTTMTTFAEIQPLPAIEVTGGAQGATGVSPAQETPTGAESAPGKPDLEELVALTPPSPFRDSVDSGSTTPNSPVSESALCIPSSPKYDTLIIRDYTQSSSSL
Method: Human embryonic kidney (HEK) cells transfected with rat or human mGluR5 were plated in clear bottom assay plates for assay in a Functional Drug Screening System (FDSS). The cells were loaded with a Ca2+-sensitive fluorescent dye (e.g., Fluo-4), and the plates were washed and placed in the FDSS instrument. Test compound was applied to cells 3 seconds after baseline readings were taken. Cells were incubated with the test compounds for 140 seconds and then stimulated with an EC20 concentration of an mGluR5 agonist (e.g., glutamate, 3,5-dihydroxyphenylglycine, or quisqualate); 60-80 seconds later an EC80 concentration of agonist was added and readings taken for an additional 40 seconds. Data were collected at 1 Hz. […] Concentration response curves were generated using a four parameter logistical equation.

[5] = Solubility in SGF and FaSSIF; format: physicochemical
Excerpt: (§1) Additional physicochemical and pharmacological data are provided below in Tables 2-4 for Test Compounds 1 and 2 (Compounds […] and (2) as described herein).

Permeability/efflux = format: in vitro ADME; settings: Table 2, Permeability/efflux
Excerpt: as §1

Human PPB = format: in vitro ADME
Excerpt: as §1

Mouse BHB = format: in vitro ADME
Excerpt: as §1

[6] = Mouse PO PK (plasma and brain concentration); format: in vivo; settings: Mouse PO 10 mg/kg; for concentration at 0.25 h / concentration at 0.5 h / concentration at 1 h / concentration at 3 h: mouse, po, 10 mg/kg
Excerpt: as §1

[7] = SGF, pH 1.6, simulated gastric fluid
[8] = brain, read-out: Brain Concentration
[9] = brain, read-out: Free Brain Concentration
[10] = brain, 3 h, read-out: Brain Concentration
[11] = brain, 3 h, read-out: Free Brain Concentration
[12] = plasma, read-out: Plasma Concentration

Cc1cc(Oc2cncc(F)c2)cc(C(=O)Nc2ccc(F)cn2)n1 [Compound (1), N-(5-fluoropyridin-2-yl)-4-((5-fluoropyridin-3-yl)oxy)-6-methylpicolinamide]
total distance traveled (elevated plus maze; 10 mg/kg): statistically significant beneficial effect
total distance traveled (elevated plus maze; 30 mg/kg): statistically significant beneficial effect

Cc1cc(Oc2cncnc2)cc(C(=O)Nc2ccc(F)cn2)n1 [Compound (2), N-(5-fluoropyridin-2-yl)-6-methyl-4-(pyrimidin-5-yloxy)picolinamide]
inhibition of marble burying vs. vehicle ([1]; 3 mg/kg PO 15 min prior to testing, 0.5% MC, 30 min burying): inhibition of marble burying was observed
inhibition of marble burying vs. vehicle ([1]; 10 mg/kg PO 15 min prior to testing, 0.5% MC, 30 min burying): inhibition of marble burying was observed
time spent in the open arms (elevated plus maze; 30 mg/kg): statistically significant increase in the time spent in the open arms
total distance traveled (elevated plus maze; 30 mg/kg): statistically significant beneficial effect

Cc1cccc(C#Cc2ccccc2)n1 [MPEP, 2-methyl-6-(phenylethynyl)pyridine]
effect in marble burying model [2]: effective in this model
effect on NMDA receptor activity [3]: directly inhibit the N-methyl-D-aspartate (NMDA) receptor activity
activity at mGluR4 (mGluR4): positive allosteric modulator of mGluR4

Cc1nc(C#Cc2cccnc2)cs1 [MTEP, 3-[(2-methyl-1,3-thiazol-4-yl)ethynyl]pyridine]
inhibition of cytochrome P450 1A2 (cytochrome P450 1A2): potent inhibitor of cytochrome P450 1A2
clearance [4]: efficiently cleared

Cc1nc(C#Cc2ccc(-c3cc(F)cc(C#N)c3)nc2)cs1 [STX107, reference compound]
inhibition of marble burying vs. vehicle ([1]; positive control, 10 mg/kg free base IP 60 min ptx): inhibition of marble burying was observed

Cc1cc(Oc2cncnc2)cc(C(=O)Nc2ccc(F)cn2)n1 [drawing 263, N-(5-fluoropyridin-2-yl)-6-methyl-4-(pyrimidin-5-yloxy)picolinamide]
mGluR5 mode of action (mGluR5): NAM
solubility ([5]; FaSSIF, pH 6.5, fassif): 47 µg/mL (≈ 144 µM)
solubility [5, 7]: 205 µg/mL (≈ 630 µM)
Permeability (Permeability/efflux): Predicted high
efflux (Permeability/efflux): no efflux
Human PPB, % (Human PPB): 91.4%

Cc1cc(Oc2cncc(F)c2)cc(C(=O)Nc2ccc(F)cn2)n1 [drawing 264, N-(5-fluoropyridin-2-yl)-4-((5-fluoropyridin-3-yl)oxy)-6-methylpicolinamide]
mGluR5 mode of action (mGluR5): NAM
solubility ([5]; FaSSIF, pH 6.5, fassif): 7 µg/mL (≈ 20.4 µM)
solubility [5, 7]: 70 µg/mL (≈ 204 µM)
Permeability (Permeability/efflux): Predicted high
efflux (Permeability/efflux): no efflux
Human PPB, % (Human PPB): 98.5%

Cc1cc(Oc2cncnc2)cc(C(=O)Nc2ccc(F)cn2)n1 [drawing 269]
Mouse BHB (%) (Mouse BHB): 92.2%
Plasma Concentration (nM) ([6]; 1 h): BLQ
Plasma Concentration (nM) ([6]; 3 h): BLQ
concentration at 0.25 h [6, 8]: 195 nM
concentration at 0.25 h [6, 9]: 15.2 nM
concentration at 0.5 h [6, 8]: 345 nM
concentration at 0.5 h [6, 9]: 26.9 nM
concentration at 1 h ([6]; brain, 1 h, read-out: Brain Concentration): 9.9 nM
concentration at 1 h ([6]; brain, 1 h, read-out: Free Brain Concentration): 0.8 nM
concentration at 3 h [6, 10]: 9.2 nM
concentration at 3 h [6, 11]: 0.7 nM
concentration at 0.25 h [6, 12]: 33.2 nM
concentration at 0.5 h [6, 12]: 77.4 nM

Cc1cc(Oc2cncc(F)c2)cc(C(=O)Nc2ccc(F)cn2)n1 [drawing 270]
Mouse BHB (%) (Mouse BHB): 98.5%
Brain Concentration (nM) ([6]; 1 h): BLQ
Plasma Concentration (nM) ([6]; 1 h): BLQ
concentration at 0.25 h [6, 8]: 176 nM
concentration at 0.25 h [6, 9]: 2.6 nM
concentration at 0.5 h [6, 8]: 143 nM
concentration at 0.5 h [6, 9]: 2.1 nM
concentration at 3 h [6, 10]: 19.6 nM
concentration at 3 h [6, 11]: 0.3 nM
concentration at 0.25 h [6, 12]: 48.3 nM
concentration at 0.5 h [6, 12]: 30.7 nM
concentration at 3 h ([6]; plasma, 3 h, read-out: Plasma Concentration): 3.2 nM

CN1CC(=O)N=C1NC(=O)Nc1cccc(Cl)c1 [fenobam, 1-(3-chlorophenyl)-3-(1-methyl-4-oxo-4,5-dihydro-1H-imidazol-2-yl)urea]
effect in marble burying model [2]: effective in this model
